We go through two molecules from ChEMBL document CHEMBL1141777, “Norlanostane triterpenoidal saponins from the marine sponge melophlussarassinorum” (2005).

The structures appear in SMILES notation. Calls of active or inactive are those of the source. No cut-off for these calls is given here.

Assay [1] concerns Saccharomyces cerevisiae. As to the kind of experiment: Antimicrobial activity against Saccharomyces cerevisiae. The format is functional, organism-based.
The test system of assay [2] is Escherichia coli. As to the kind of experiment: Antimicrobial activity against Escherichia coli DSM 10290. Format: functional, organism-based.
For assay [3], the system named is Bacillus subtilis. As to the kind of experiment: Antimicrobial activity against Bacillus subtilis DSM 2109. Format: functional, organism-based.
Assay [4] deals with Saccharomyces cerevisiae. Kind of assay: Antimicrobial activity against Saccharomyces cerevisiae at 10 ug after 24 hrs by agar diffusion assay. The format is functional. The following applies: read-out: IZ.
The test system of assay [5] is Bacillus subtilis. Kind of assay: Antimicrobial activity against Bacillus subtilis DSM 2109 at 10 ug after 24 hrs by agar diffusion assay. The format is functional. The note with it: DSM 2109, 24 h, read-out: IZ.

Take `CC(=O)N[C@H]1[C@H](O[C@@H]2CO[C@@H](O[C@H]3CC[C@]4(C)C5=C(CC[C@H]4C3(C)C)[C@@H]3CC[C@H]([C@H](C)CC(=O)C=C(C)C)[C@@]3(C)CC5)[C@H](O[C@@H]3O[C@H](CO[C@@H]4O[C@H](CO)[C@@H](O)[C@H](O)[C@H]4O[C@@H]4O[C@H](CO)[C@@H](O)[C@H](O)[C@H]4O)[C@@H](O)[C@H](O)[C@H]3NC(C)=O)[C@H]2O)O[C@H](CO)[C@H](O)[C@@H]1O` [SARASINOSIDE A1]: the outcome in assay [1] was Active. For the same molecule, the outcome in assay [2] and in assay [3] was inactive. Further, in assay [4], the zone of inhibition at 10 µg/disc was determined as 10 mm.
On to `CC(=O)N[C@H]1[C@H](O[C@@H]2CO[C@@H](O[C@H]3CC[C@]4(C)C5=C(CC[C@H]4C3(C)C)[C@@H]3CC[C@H]([C@H](C)CC(=O)CC(C)(C)O)[C@@]3(C)CC5)[C@H](O[C@@H]3O[C@H](CO[C@@H]4O[C@H](CO)[C@@H](O)[C@H](O)[C@H]4O[C@@H]4O[C@H](CO)[C@@H](O)[C@H](O)[C@H]4O)[C@@H](O)[C@H](O)[C@H]3NC(C)=O)[C@H]2O)O[C@H](CO)[C@H](O)[C@@H]1O` [SARASINOSIDE J], for which the result in assay [1] was Active. Moreover, the zone of inhibition at 10 µg/disc in assay [5] came to 9 mm; in assay [4] it was 13 mm.
